Results taken from patent publication US6576663B2, “6-Keto prostaglandin F1α and analogs for treating dry eye” (Alcon, Inc., priority 1999, dated 2003).

Columns and labels:
[1] = test system: human conjuctival epithelium; test: mucin production in human conjuctival epithelium; assay type: cell-based
[2] = test system: intestinal epithelial cells; settings: released by intestinal epithelial cells in response to hypoxia; cited from earlier work

CCCCC[C@H](O)/C=C/[C@@H]1[C@@H](CC(=O)CCCCC(=O)O)[C@@H](O)C[C@H]1O [6-keto PGF1α, 6-keto-PGF1α]
mucin production [1]: stimulate mucin production
chloride secretagogue activity [2]: potent chloride secretagogue
